Test results published in the NIST ThermoML archive (doi:10.1021/acs.jced.7b00783).
± gives the expanded uncertainty stated by the source.

Conditions: Liquid, Ebulliometric method (Recirculating still)

SMILES	vapor or sublimation pressure (351.45 K) [kPa]	vapor or sublimation pressure (352.72 K) [kPa]
CCO [ethanol]	101.3 ± 0.46	
CCC(C)=O [butanone]		101.3 ± 0.46
